PubChem BioAssay (NCI)
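How tested: cells in 96-well plates exposed to compound for 48 hours at five concentrations. Abbreviation: GI50, concentration required for 50% inhibition of growth. At the TGI there is no net growth.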

How the values were obtained:
Experiment in all cases: DTP human tumour cell line panel, 48 h
[1] = system: 786-0 renal
[2] = system: HCT-116 colon
[3] = system: HT29 colon
[4] = system: IGROV1 ovarian
[5] = system: NCI-H460 lung
[6] = system: SNB-19 CNS
[7] = system: U251 CNS
[8] = system: BT-549 breast
[9] = system: MCF7 breast
[10] = system: T-47D breast

SMILES	GI50 [1]	TGI [1]	GI50 [2]	TGI [2]	GI50 [3]	TGI [3]	GI50 [4]	TGI [4]	GI50 [5]	TGI [5]	GI50 [6]	TGI [6]	GI50 [7]	TGI [7]	GI50 [8]	TGI [8]	GI50 [9]	TGI [9]	TGI [10]
O=C([CH-]C(=O)c1ccccc1)c1ccccc1.O=C([CH-]C(=O)c1ccccc1)c1ccccc1.[OH-].[OH-].[Ti+4]	47.1 µM	> 100 µM	84.3 µM	> 100 µM	> 100 µM	> 100 µM	> 100 µM	> 100 µM	60.3 µM	> 100 µM	39.9 µM	> 100 µM	18.1 µM	> 100 µM	–	–	–	–	–
CCOC1=C2N=C(Cc3ccccc3F)N=C2C(=O)c2ccccc21	–	> 100 µM	–	> 100 µM	–	> 100 µM	–	–	–	> 100 µM	–	> 100 µM	–	> 100 µM	–	–	–	–	–
COCCOCOc1ccc(OCOCCOC)c2c1C(=O)c1ccccc1C2=O	–	> 100 µM	–	> 85.4 µM	–	> 100 µM	–	> 100 µM	–	> 100 µM	–	> 100 µM	–	> 100 µM	–	–	–	–	–
COc1ccc(C2[C@@H](Cl)C(=O)N2c2cc(OC)c(OC)c(OC)c2)cc1Cl (stereo partly drawn)	0.0389 µM	10.1 µM	0.0721 µM	15.2 µM	0.221 µM	0.752 µM	0.343 µM	41.5 µM	0.317 µM	6.95 µM	0.293 µM	> 100 µM	0.197 µM	21.3 µM	0.102 µM	0.61 µM	0.0367 µM	> 100 µM	–
N#Cc1ccc(N=Cc2c([O-])ccc3ccccc23)cc1.[C-]#[O+].[C-]#[O+].[Ir]	14.3 µM	28 µM	13.2 µM	26 µM	17.6 µM	42.3 µM	14.1 µM	27.9 µM	–	–	18.4 µM	33.2 µM	13 µM	25.7 µM	–	–	–	–	–
CC1(C)C2CCC13CS(=O)(=O)N1O[C@]13C(=O)O2 (stereo partly drawn)	–	> 100 µM	–	> 100 µM	–	> 100 µM	–	> 100 µM	–	> 100 µM	–	> 100 µM	–	> 100 µM	–	–	–	–	–
CN(C)CCC(/C=C/c1ccccc1)=N\Nc1ccc(Cl)cc1Cl	–	26.1 µM	–	28.8 µM	–	27.2 µM	–	20.9 µM	–	28.1 µM	–	29.4 µM	–	24.7 µM	–	–	–	–	–
COc1cc(-c2cc(-c3cc([N+](=O)[O-])c(/C=N/NC(=O)c4ccncc4)o3)ccc2OC)ccc1C	–	> 100 µM	–	–	–	> 100 µM	–	> 100 µM	–	–	–	> 100 µM	–	–	–	–	–	–	–
Cc1cc2c(c(C(=O)O)c1C)-c1cccc(F)c1C2=O	–	> 100 µM	–	–	–	> 100 µM	–	> 100 µM	–	> 100 µM	–	> 100 µM	–	> 100 µM	–	–	–	–	–
COC(=O)C(C)(C)N=CN(C)C	–	> 100 µM	–	> 100 µM	–	> 100 µM	–	> 100 µM	–	> 100 µM	–	> 100 µM	–	> 100 µM	–	–	–	–	–
c1ccc2c3c([nH]c2c1)C1CCCN1CC3 (stereo not drawn)	–	> 10 µM	–	–	–	> 10 µM	–	> 10 µM	–	> 10 µM	–	> 10 µM	–	> 10 µM	–	–	–	> 10 µM	> 10 µM
COc1ccc(C(Cl)=C(c2ccc(OCCN(C)C)cc2)c2ccc(OCCN(C)C)cc2)cc1	–	2.53 µM	–	2.68 µM	–	3 µM	–	13.3 µM	–	3.32 µM	–	7.43 µM	–	3.25 µM	–	–	–	–	–
C/C=C(\C)c1cc(O)c(C)c2c1Oc1cc(O)c(Cl)c(C)c1C(=O)O2	–	49.2 µM	–	–	–	34.7 µM	–	–	–	39.7 µM	–	31.6 µM	–	39.6 µM	–	–	–	–	–
O=P1(Oc2ccccc2)C(c2ccccc2)C(c2ccccc2)=NN1c1ccccc1 (stereo not drawn)	–	> 100 µM	–	31.3 µM	–	33 µM	–	69.9 µM	–	60.9 µM	–	> 100 µM	–	42.2 µM	–	–	–	–	–
Cc1ccc(S(=O)OC2C3CC4CC(C3)CC2C4)cc1 (stereo not drawn)	–	> 100 µM	–	> 100 µM	–	> 100 µM	–	> 100 µM	–	> 100 µM	–	> 100 µM	–	> 100 µM	–	–	–	–	–
Cc1cc(N(CCC#N)CCC#N)ccc1/C=C1/N=C(c2ccccc2)N(N)C1=O	–	> 100 µM	–	> 100 µM	–	> 100 µM	–	> 100 µM	–	–	–	> 100 µM	–	> 100 µM	–	–	–	–	–
COc1cc2nc(NCCCCCNC(=O)c3ccco3)nc(N)c2cc1OC	–	49 µM	–	–	–	> 100 µM	–	> 100 µM	–	> 100 µM	–	> 100 µM	–	42.5 µM	–	–	–	–	–
[N-]=[N+]=C1C(=O)C2CC3CC(C2)CC1C3	–	> 100 µM	–	> 100 µM	–	> 100 µM	–	> 100 µM	–	> 100 µM	–	> 100 µM	–	> 100 µM	–	–	–	–	–
CN1COc2c(n(C)c(=O)[nH]c2=O)C1	–	> 100 µM	–	> 100 µM	–	> 100 µM	–	> 100 µM	–	> 100 µM	–	> 100 µM	–	> 100 µM	–	–	–	–	–
